Literature values in Sander's compilation of Henry's law constants (doi:10.1080/00022470.1982.10465374).

Test: Henry solubility constant Hcp at 298.15 K (mol/(m3 Pa))
Settings: reference: Shen (1982); cited value

ClC(Cl)Br [bromodichloromethane]
Henry solubility constant Hcp: 0.0047

Clc1cccc(Cl)c1 [1,3-dichlorobenzene]
Henry solubility constant Hcp: 0.0038

Clc1ccc(Cl)cc1 [1,4-dichlorobenzene]
Henry solubility constant Hcp: 0.0036

ClC=CCCl [1,3-dichloropropene]
Henry solubility constant Hcp: 0.0028

c1ccc2c(c1)Cc1ccccc1-2 [2,3-benzindene]
Henry solubility constant Hcp: 0.084

ClC1=C(Cl)[C@]2(Cl)[C@H]3[C@H]([C@@H]4C=C[C@H]3C4)[C@@]1(Cl)C2(Cl)Cl [aldrin]
Henry solubility constant Hcp: 0.02

CC(Cl)CCl (centres undefined) [1,2-dichloropropane]
Henry solubility constant Hcp: 0.0035

ClC(Cl)(Cl)Cl [tetrachloromethane]
Henry solubility constant Hcp: 0.00033

ClC(Br)Br [dibromochloromethane]
Henry solubility constant Hcp: 0.013

O=[N+]([O-])c1ccccc1 [nitrobenzene]
Henry solubility constant Hcp: 0.41

ClC1=C(Cl)C2(Cl)C3C4OC4C(Cl)C3C1(Cl)C2(Cl)Cl (centres undefined) [heptachlorepoxide]
Henry solubility constant Hcp: 0.31

ClC1=C(Cl)[C@]2(Cl)C3C(Cl)C(Cl)CC3[C@@]1(Cl)C2(Cl)Cl (some centres undefined) [chlordane]
Henry solubility constant Hcp: 0.21

ClC1=C(Cl)C(Cl)(Cl)C(Cl)=C1Cl [hexachlorocyclopentadiene]
Henry solubility constant Hcp: 0.0006

BrC(Br)Br [tribromomethane]
Henry solubility constant Hcp: 0.019

CCc1ccccc1 [ethylbenzene]
Henry solubility constant Hcp: 0.0015

C=C(Cl)Cl [1,1-dichloroethene]
Henry solubility constant Hcp: 0.00066

CC(Cl)(Cl)Cl [1,1,1-trichloroethane]
Henry solubility constant Hcp: 0.002

Clc1ccccc1 [chlorobenzene]
Henry solubility constant Hcp: 0.0025

ClC(Cl)(Cl)C(Cl)(Cl)Cl [hexachloroethane]
Henry solubility constant Hcp: 0.001

ClC1=C(Cl)C2(Cl)C3C(Cl)C=CC3C1(Cl)C2(Cl)Cl (centres undefined) [heptachlor]
Henry solubility constant Hcp: 0.0067

c1cc2c3c(cccc3c1)CC2 [acenaphthene]
Henry solubility constant Hcp: 0.041

C1=Cc2cccc3cccc1c23 [acenaphthylene]
Henry solubility constant Hcp: 0.087

ClC1=C(Cl)[C@]2(Cl)[C@@H]3[C@@H]4C[C@@H]([C@H]5O[C@@H]45)[C@@H]3[C@@]1(Cl)C2(Cl)Cl [dieldrin]
Henry solubility constant Hcp: 0.17

ClC(Cl)=C(Cl)C(Cl)=C(Cl)Cl [hexachlorobutadiene]
Henry solubility constant Hcp: 0.00096

ClC=C(Cl)Cl [trichloroethene]
Henry solubility constant Hcp: 0.00084

ClC(Cl)=C(Cl)Cl [tetrachloroethene]
Henry solubility constant Hcp: 0.00034

ClCCl [dichloromethane]
Henry solubility constant Hcp: 0.0031

Cc1ccccc1 [methylbenzene]
Henry solubility constant Hcp: 0.0017

c1ccccc1 [benzene]
Henry solubility constant Hcp: 0.0018
